Experimental data reported in BindingDB's records for doi:10.1111/cbdd.12796 (Fudan University, 2016).
Values joined by “and” are separate entries in the source; they are usually repeats but may differ in a detail not shown here. Equal entries are not always repeated.

Experiments:
D(1A) dopamine receptor [1] = molecular target: T1, D(1A) dopamine receptor (Homo sapiens, UniProt P21728); assay: Competitive Binding Assays
D(2) dopamine receptor = D(2) dopamine receptor (Homo sapiens, UniProt P14416); assay: Competitive Binding Assays
D(3) dopamine receptor = D(3) dopamine receptor (Homo sapiens, UniProt P35462); assay: Competitive Binding Assays
D(1A) dopamine receptor [2] = molecular target: T1, D(1A) dopamine receptor; assay: D1R Functional Assay; settings: pH 7.5

Sequence of D(3) dopamine receptor (P35462 as listed by the source): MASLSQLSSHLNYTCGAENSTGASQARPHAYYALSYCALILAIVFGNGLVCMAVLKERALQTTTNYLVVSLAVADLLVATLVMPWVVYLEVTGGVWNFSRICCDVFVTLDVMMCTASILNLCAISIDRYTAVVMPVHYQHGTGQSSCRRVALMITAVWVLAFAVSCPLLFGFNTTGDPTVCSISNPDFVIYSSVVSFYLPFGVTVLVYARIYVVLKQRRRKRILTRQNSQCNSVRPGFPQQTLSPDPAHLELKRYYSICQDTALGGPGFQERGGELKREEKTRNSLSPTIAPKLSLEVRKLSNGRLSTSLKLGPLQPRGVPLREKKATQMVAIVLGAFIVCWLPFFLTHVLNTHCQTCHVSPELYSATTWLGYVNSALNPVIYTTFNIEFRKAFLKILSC
T1 sequence (P21728 whole entry): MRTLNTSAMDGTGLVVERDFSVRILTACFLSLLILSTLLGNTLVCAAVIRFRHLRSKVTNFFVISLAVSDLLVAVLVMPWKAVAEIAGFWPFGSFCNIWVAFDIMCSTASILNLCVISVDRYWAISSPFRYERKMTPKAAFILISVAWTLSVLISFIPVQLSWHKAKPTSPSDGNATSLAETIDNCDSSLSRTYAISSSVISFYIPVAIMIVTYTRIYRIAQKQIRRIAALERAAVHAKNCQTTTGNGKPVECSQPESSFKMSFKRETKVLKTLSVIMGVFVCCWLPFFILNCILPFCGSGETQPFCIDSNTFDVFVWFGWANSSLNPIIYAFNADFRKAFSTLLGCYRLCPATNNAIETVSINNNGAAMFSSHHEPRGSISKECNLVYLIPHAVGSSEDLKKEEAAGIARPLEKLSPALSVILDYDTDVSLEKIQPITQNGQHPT
Sequence of D(2) dopamine receptor (P14416 whole entry): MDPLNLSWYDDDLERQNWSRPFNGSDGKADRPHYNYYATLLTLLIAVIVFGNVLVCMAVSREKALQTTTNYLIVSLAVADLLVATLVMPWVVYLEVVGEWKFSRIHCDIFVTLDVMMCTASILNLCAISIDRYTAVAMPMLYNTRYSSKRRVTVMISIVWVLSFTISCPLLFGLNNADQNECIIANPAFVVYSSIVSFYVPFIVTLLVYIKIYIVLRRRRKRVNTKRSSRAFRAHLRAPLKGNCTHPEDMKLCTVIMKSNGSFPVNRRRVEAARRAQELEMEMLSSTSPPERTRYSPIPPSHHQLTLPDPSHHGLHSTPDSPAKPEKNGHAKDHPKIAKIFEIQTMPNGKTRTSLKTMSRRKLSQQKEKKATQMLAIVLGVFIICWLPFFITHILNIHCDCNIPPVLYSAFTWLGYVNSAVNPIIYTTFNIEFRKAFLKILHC

SMILES	Ki (D(1A) dopamine receptor [1])	Ki (D(2) dopamine receptor)	Ki (D(3) dopamine receptor)	IC50 (D(1A) dopamine receptor [2])
COc1ccc2c(c1OC)CCN1CCc3cc4c(cc3C1C2)OCO4 (stereo not drawn) [Hexahydrobenzo[4,5]azepino[2,1-a]isoquinoline, 16]	60.3 nM	4.26 nM	27.3 nM	–
Oc1cc2c(cc1O)C1Cc3ccc(O)c(O)c3CCN1CC2 (stereo not drawn) [5,6,8,9,14,14a-hexahydrobenzo[4,5]azepino[2,1-a]isoquinoline-2,3,10,11-tetraol (18)]	33.7 nM	72.2 nM	471 nM	115000 nM
COc1cc2c(cc1OC)CC1c3cc(OC)c(OC)cc3CCN1CC2 (stereo not drawn) [2,3,11,12-tetramethoxy-5,6,8,9,14,14a-hexahydrobenzo[4,5]azepino[2,1-a]isoquinoline (15a)]	33.9 nM	26.5 nM	13.3 nM	–
COc1cc2c(cc1O)C1Cc3cc(OC)c(OC)cc3CCN1CC2 (stereo not drawn) [3,11,12-trimethoxy-5,6,8,9,14,14a-hexahydrobenzo[4,5]azepino[2,1-a]isoquinolin-2-ol (15b)]	69.1 nM	6.96 nM	39.2 nM	–

The remaining lines, values ahead:

Ki (D(1A) dopamine receptor [1])	Ki (D(2) dopamine receptor)	Ki (D(3) dopamine receptor)	IC50 (D(1A) dopamine receptor [2])	SMILES
57.3 nM	29.8 nM	22 nM	–	COc1cc2c(cc1OC)C1Cc3ccc(OC)c(OC)c3CCN1CC2 (stereo not drawn) [2,3,10,11-tetramethoxy-5,6,8,9,14,14a-hexahydrobenzo[4,5]azepino[2,1-a]isoquinoline (15c)]
474 nM	52 nM	73.7 nM	–	COc1cc2c(cc1OC(C)=O)C1Cc3ccc(OC)c(OC)c3CCN1CC2 (stereo not drawn) [3,10,11-trimethoxy-5,6,8,9,14,14a-hexahydrobenzo[4,5]azepino[2,1-a]isoquinolin-2-ylacetate (19)]
30.3 nM	84 nM	284 nM	33500 nM	COc1cc2c(cc1O)C1Cc3ccc(OC)c(OC)c3CCN1CC2 (stereo not drawn) [3,10,11-trimethoxy-5,6,8,9,14,14a-hexahydrobenzo[4,5]azepino[2,1-a]isoquinolin-2-ol (15d)]
–	36.6 nM and 34.4 nM and 58.3 nM	–	140 nM	COc1cc2c(cc1O)C1Cc3ccc(OC)c(O)c3CCN1CC2 (stereo not drawn) [3,11-dimethoxy-5,6,8,9,14,14a-hexahydrobenzo[4,5]azepino[2,1-a]isoquinoline-2,10-diol ((+)-15e)]
220 nM	39.2 nM	61.2 nM	–	COc1ccc2c(c1OC)CCN1CCc3cc(O)c(O)cc3C1C2 (stereo not drawn) [Hexahydrobenzo[4,5]azepino[2,1-a]isoquinoline, 17]
